Tests used:
[1] = Half life in Sprague-Dawley rat plasma at 2 mg/kg, iv by LC-MS/MS analysis; type: ADME, organism-based; conditions: Sprague-Dawley, plasma
[2] = biological target: Indoleamine 2,3-dioxygenase 1 (Homo sapiens, UniProt P14902); assay: Inhibition of Indoleamine 2,3-dioxygenase in human HeLa cells in presence of L-tryptophan as substrate after 24 hrs in presence of L-tryptophan; type: cell-based
[3] = biological target: Epidermal growth factor receptor (Homo sapiens) (UniProt P00533); assay: Inhibition of EGF receptor (unknown origin) at 10 uM
[4] = biological target: Endothelin receptor type B (Homo sapiens) (UniProt P24530); assay: Inhibition of ETB receptor (unknown origin) at 10 uM
Chain of Endothelin receptor type B (Homo sapiens) (P24530 whole entry): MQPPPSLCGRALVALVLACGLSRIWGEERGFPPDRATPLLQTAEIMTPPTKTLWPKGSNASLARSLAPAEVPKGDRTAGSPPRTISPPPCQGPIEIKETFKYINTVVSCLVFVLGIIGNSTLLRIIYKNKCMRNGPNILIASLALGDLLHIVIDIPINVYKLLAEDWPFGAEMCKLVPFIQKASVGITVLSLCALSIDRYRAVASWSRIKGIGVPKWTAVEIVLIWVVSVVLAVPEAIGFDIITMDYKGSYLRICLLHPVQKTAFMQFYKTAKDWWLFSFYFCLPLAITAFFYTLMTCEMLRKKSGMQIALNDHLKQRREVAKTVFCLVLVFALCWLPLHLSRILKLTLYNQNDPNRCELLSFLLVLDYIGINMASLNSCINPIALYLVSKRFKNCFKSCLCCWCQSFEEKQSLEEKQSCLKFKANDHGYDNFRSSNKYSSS

[5] = biological target: Sodium-dependent dopamine transporter (Homo sapiens) (UniProt Q01959); assay: Inhibition of DAT (unknown origin) at 10 uM
[6] = biological target: D(2) dopamine receptor (Homo sapiens) (UniProt P14416); assay: Inhibition of Dopamine D2S receptor (unknown origin) at 10 uM
[7] = biological target: Glutamate [NMDA] receptor (Homo sapiens) (UniProt Q05586+Q12879+Q13224+O15399+O60391+Q14957+Q8TCU5); assay: Inhibition of NMDA receptor glycine binding site (unknown origin) at 10 uM
CT26 [8] = assay: Antitumor activity against mouse CT26 cells xenografted in Balb/c mouse assessed as tumor growth delay at 400 mg/kg, po bid for 22 days; type: functional; conditions: 528 h, read-out: TGI
[9] = biological target: Endothelin-1 receptor (Homo sapiens) (UniProt P25101); assay: Inhibition of ETA receptor (unknown origin) at 10 uM
[10] = biological target: Adenosine receptor A2a (Homo sapiens) (UniProt P29274); assay: Inhibition of Adenosine A2A receptor (unknown origin) at 10 uM
Chain of Adenosine receptor A2a (Homo sapiens) (P29274 whole entry): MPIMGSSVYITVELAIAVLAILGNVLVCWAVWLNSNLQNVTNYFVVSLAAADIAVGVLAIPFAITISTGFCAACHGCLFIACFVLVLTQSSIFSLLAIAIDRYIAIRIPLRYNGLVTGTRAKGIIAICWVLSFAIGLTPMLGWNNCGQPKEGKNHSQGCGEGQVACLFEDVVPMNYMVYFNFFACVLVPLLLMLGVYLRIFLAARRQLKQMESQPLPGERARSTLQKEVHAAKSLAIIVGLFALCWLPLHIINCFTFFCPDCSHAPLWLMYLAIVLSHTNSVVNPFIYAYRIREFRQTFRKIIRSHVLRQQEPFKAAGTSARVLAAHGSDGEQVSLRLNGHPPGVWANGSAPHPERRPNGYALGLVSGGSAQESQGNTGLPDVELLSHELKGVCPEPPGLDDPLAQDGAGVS

Homo sapiens [11] = organism: Homo sapiens; assay: Inhibition of GABAA receptor central flunitrazepam site (unknown origin) at 10 uM
Mus musculus [12] = assay: Decrease in ratio of kynurenine to tryptophan in C57BL/6 mouse at 50 mg/kg, po after 2 hrs by LC-MS/MS analysis; type: functional; conditions: C57BL/6, po
[13] = biological target: Substance-P receptor (Homo sapiens) (UniProt P25103); assay: Inhibition of Tachykinin NK1 receptor (unknown origin) at 10 uM
Chain of Substance-P receptor (Homo sapiens) (P25103 whole entry): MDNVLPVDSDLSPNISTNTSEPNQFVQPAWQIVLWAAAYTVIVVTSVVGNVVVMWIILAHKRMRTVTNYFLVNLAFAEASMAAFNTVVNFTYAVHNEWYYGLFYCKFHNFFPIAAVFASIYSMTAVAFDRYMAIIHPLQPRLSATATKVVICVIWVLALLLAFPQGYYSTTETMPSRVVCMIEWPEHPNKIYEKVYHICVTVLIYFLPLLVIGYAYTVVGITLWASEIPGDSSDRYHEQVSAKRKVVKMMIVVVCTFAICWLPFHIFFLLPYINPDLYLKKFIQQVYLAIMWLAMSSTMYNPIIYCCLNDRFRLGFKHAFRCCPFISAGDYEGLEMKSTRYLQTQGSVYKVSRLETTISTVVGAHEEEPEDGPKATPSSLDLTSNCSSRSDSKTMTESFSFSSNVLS

[14] = biological target: Alpha-1A adrenergic receptor (Homo sapiens) (UniProt P35348); assay: Inhibition of Adrenergic alpha1A receptor (unknown origin) at 10 uM
Chain of Alpha-1A adrenergic receptor (Homo sapiens) (P35348 whole entry): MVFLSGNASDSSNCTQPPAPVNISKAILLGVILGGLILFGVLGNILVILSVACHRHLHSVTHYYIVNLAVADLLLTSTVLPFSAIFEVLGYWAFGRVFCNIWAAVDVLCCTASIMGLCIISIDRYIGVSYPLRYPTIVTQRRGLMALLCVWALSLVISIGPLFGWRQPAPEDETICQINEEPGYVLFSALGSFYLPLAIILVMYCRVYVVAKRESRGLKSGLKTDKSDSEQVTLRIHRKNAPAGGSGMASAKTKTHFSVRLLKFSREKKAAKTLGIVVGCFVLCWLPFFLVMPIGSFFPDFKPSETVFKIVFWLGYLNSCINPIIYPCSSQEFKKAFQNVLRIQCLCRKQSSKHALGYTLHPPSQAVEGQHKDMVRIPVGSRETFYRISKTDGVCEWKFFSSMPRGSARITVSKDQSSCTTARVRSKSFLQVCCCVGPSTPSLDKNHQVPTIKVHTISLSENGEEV

[15] = Tmax in Sprague-Dawley rat plasma at 10 mg/kg, po by LC-MS/MS analysis; type: ADME, organism-based
[16] = biological target: 5-hydroxytryptamine receptor 1A (Homo sapiens) (UniProt P08908); assay: Inhibition of 5HT-1A (unknown origin) at 10 uM
Chain of 5-hydroxytryptamine receptor 1A (Homo sapiens) (P08908 whole entry): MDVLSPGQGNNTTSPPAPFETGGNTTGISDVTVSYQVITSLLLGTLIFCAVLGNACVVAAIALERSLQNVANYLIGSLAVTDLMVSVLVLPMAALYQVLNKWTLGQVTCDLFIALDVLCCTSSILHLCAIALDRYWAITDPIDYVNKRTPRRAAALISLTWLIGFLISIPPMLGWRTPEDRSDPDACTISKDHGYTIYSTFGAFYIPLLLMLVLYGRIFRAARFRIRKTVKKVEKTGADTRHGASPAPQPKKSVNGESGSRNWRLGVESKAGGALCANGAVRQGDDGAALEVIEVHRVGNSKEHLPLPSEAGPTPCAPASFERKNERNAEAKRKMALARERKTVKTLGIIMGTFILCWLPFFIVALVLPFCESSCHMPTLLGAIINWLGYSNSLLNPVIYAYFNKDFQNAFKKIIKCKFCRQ

[17] = biological target: B1 bradykinin receptor (Homo sapiens) (UniProt P46663); assay: Inhibition of Bradykinin B1 receptor (unknown origin) at 10 uM
Homo sapiens [18] = organism: Homo sapiens; assay: Inhibition of Sodium channel site 2 (unknown origin) at 10 uM
[19] = biological target: Kappa-type opioid receptor (Homo sapiens) (UniProt P41145); assay: Inhibition of Opiate kappa receptor (unknown origin) at 10 uM
Chain of Kappa-type opioid receptor (Homo sapiens) (P41145 whole entry): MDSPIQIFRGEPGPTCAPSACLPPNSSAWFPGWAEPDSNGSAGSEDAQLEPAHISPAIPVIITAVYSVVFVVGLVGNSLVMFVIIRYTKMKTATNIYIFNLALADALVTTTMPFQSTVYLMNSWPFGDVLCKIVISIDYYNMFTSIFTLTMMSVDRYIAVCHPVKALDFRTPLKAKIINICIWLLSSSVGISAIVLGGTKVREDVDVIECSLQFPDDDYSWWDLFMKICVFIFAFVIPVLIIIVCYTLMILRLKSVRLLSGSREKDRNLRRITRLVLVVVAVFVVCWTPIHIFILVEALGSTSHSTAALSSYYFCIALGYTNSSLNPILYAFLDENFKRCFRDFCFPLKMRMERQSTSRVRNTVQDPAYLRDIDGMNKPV

[20] = biological target: L-type calcium channel, dihydropyridine binding site (Homo sapiens, UniProt O60840+Q01668+Q13698+Q13936); assay: Inhibition of L-type calcium channel dihydropyridine binding site (unknown origin) at 10 uM; type: protein assay
[21] = AUC (0 to infinity) in Sprague-Dawley rat plasma at 10 mg/kg, po by LC-MS/MS analysis; type: ADME, organism-based; parameters: dose 10 mg/kg, route oral, time infinity
[22] = biological target: Muscarinic acetylcholine receptor M2 (Homo sapiens) (UniProt P08172); assay: Inhibition of Muscarinic M2 receptor (unknown origin) at 10 uM
Chain of Muscarinic acetylcholine receptor M2 (Homo sapiens) (P08172 whole entry): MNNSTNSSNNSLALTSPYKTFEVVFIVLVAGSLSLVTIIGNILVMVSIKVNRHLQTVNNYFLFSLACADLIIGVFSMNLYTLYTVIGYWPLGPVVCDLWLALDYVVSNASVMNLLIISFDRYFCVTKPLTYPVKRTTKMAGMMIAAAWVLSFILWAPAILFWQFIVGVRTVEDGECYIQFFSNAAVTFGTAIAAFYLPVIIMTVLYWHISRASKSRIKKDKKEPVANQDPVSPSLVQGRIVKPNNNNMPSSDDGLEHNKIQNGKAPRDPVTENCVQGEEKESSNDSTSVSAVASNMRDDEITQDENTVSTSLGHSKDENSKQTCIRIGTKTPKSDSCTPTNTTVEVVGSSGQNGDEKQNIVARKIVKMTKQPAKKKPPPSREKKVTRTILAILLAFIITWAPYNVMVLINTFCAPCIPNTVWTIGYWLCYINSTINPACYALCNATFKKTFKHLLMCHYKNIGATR

[23] = biological target: Adenosine receptor A1 (Homo sapiens) (UniProt P30542); assay: Inhibition of Adenosine A1 receptor (unknown origin) at 10 uM
[24] = biological target: Histamine H1 receptor (Homo sapiens) (UniProt P35367); assay: Inhibition of Histamine H1 receptor (unknown origin) at 10 uM
[25] = biological target: 5-hydroxytryptamine receptor 3A (Homo sapiens) (UniProt P46098); assay: Inhibition of 5HT3 receptor (unknown origin) at 10 uM
Chain of 5-hydroxytryptamine receptor 3A (Homo sapiens) (P46098 whole entry): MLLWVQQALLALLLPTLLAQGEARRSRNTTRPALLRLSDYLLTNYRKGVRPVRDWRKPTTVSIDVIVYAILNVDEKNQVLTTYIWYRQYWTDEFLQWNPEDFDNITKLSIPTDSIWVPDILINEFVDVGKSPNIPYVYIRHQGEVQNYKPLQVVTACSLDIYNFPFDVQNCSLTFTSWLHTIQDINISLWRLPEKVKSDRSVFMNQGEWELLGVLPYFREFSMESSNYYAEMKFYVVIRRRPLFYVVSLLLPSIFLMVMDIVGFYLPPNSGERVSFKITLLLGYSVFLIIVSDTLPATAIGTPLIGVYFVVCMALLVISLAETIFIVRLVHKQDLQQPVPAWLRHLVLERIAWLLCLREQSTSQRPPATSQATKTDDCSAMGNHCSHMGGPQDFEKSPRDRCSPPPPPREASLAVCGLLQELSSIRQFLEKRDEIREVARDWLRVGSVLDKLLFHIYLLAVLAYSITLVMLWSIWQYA

[26] = Oral bioavailability in Sprague-Dawley rat plasma at 10 mg/kg by LC-MS/MS analysis; type: ADME, organism-based
[27] = biological target: Sodium-dependent serotonin transporter (Homo sapiens) (UniProt P31645); assay: Inhibition of Serotonin transporter (unknown origin) at 10 uM
Chain of Sodium-dependent serotonin transporter (Homo sapiens) (P31645 whole entry, looked up): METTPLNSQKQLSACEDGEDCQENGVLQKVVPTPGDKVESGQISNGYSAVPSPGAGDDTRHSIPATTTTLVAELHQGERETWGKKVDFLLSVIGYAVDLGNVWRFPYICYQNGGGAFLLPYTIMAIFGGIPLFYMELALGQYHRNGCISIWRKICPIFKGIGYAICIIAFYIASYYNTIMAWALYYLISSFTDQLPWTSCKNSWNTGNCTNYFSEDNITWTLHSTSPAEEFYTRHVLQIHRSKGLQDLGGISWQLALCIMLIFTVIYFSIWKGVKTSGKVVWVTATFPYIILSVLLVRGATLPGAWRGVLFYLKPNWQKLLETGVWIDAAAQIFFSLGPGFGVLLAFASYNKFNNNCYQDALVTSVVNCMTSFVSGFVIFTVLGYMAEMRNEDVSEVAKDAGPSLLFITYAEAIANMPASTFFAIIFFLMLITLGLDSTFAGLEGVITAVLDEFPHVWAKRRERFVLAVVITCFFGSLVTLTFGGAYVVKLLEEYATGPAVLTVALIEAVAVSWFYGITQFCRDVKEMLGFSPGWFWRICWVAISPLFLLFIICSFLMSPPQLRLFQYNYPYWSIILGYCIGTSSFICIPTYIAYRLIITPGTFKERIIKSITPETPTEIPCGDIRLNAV

[28] = biological target: L-type calcium channel, benzothiazepine binding site (Homo sapiens, UniProt O60840+Q01668+Q13698+Q13936); assay: Inhibition of L-type calcium channel benzothiazepine binding site (unknown origin) at 10 uM; type: protein assay
Homo sapiens [29] = organism: Homo sapiens; assay: Inhibition of rolipram binding site (unknown origin) at 10 uM
[30] = biological target: Beta-1 adrenergic receptor (Homo sapiens) (UniProt P08588); assay: Inhibition of Adrenergic beta1 receptor (unknown origin) at 10 uM
Homo sapiens [31] = organism: Homo sapiens; assay: Inhibition of N-type calcium channel (unknown origin) at 10 uM
[32] = biological target: Interleukin-1 receptor type 1 (Homo sapiens) (UniProt P14778); assay: Inhibition of IL-1 receptor (unknown origin) at 10 uM
[33] = biological target: 5-hydroxytryptamine receptor 2B (Homo sapiens) (UniProt P41595); assay: Inhibition of 5-HT2B receptor (unknown origin) at 10 uM
[34] = biological target: Alpha-1B adrenergic receptor (Homo sapiens) (UniProt P35368); assay: Inhibition of Adrenergic alpha1B receptor (unknown origin) at 10 uM
Mus musculus [35] = assay: Decrease in ratio of kynurenine to tryptophan in Balb/c mouse tumor xenografted with CT26 cells at 100 mg/kg bid for 18 days administered via oral gavage after 2 hrs by LC-MS/MS analysis; type: functional
[36] = Plasma concentration in C57BL/6 mouse at 50 mg/kg, po after 5 hrs by LC-MS/MS analysis; type: ADME, organism-based
[37] = biological target: Alpha-1D adrenergic receptor (Homo sapiens) (UniProt P25100); assay: Inhibition of Adrenergic alpha1D receptor (unknown origin) at 10 uM
[38] = biological target: B2 bradykinin receptor (Homo sapiens) (UniProt P30411); assay: Inhibition of Bradykinin B2 receptor (unknown origin) at 10 uM
Homo sapiens [39] = organism: Homo sapiens; assay: Inhibition of Glutamate kainate receptor (unknown origin) at 10 uM
[40] = biological target: D(1A) dopamine receptor (Homo sapiens) (UniProt P21728); assay: Inhibition of Dopamine D1 receptor (unknown origin) at 10 uM
Chain of D(1A) dopamine receptor (Homo sapiens) (P21728 whole entry): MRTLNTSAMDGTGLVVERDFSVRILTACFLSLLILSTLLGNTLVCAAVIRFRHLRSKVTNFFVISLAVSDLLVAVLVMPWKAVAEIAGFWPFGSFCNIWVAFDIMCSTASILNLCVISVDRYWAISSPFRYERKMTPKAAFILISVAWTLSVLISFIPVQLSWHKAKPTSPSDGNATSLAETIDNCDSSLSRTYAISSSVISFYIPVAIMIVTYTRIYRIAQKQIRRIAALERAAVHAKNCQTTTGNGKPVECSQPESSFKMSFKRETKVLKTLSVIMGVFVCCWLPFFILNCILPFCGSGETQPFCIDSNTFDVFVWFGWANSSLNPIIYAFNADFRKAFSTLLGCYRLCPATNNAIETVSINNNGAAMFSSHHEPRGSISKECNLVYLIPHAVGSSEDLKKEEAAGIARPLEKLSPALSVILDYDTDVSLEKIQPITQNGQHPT

[41] = biological target: Cysteinyl leukotriene receptor 1 (Homo sapiens) (UniProt Q9Y271); assay: Inhibition of CysLT1 receptor (unknown origin) at 10 uM
CT26 [42] = assay: Antitumor activity against mouse CT26 cells xenografted in Balb/c mouse assessed as median time to end point at 100 mg/kg, po bid for 22 days; type: functional
[43] = Volume of distribution at steady state in Sprague-Dawley rat plasma at 2 mg/kg, iv by LC-MS/MS analysis; type: ADME, organism-based; conditions: Sprague-Dawley, plasma, read-out: Vdss

Chain of Indoleamine 2,3-dioxygenase 1 (P14902 whole entry): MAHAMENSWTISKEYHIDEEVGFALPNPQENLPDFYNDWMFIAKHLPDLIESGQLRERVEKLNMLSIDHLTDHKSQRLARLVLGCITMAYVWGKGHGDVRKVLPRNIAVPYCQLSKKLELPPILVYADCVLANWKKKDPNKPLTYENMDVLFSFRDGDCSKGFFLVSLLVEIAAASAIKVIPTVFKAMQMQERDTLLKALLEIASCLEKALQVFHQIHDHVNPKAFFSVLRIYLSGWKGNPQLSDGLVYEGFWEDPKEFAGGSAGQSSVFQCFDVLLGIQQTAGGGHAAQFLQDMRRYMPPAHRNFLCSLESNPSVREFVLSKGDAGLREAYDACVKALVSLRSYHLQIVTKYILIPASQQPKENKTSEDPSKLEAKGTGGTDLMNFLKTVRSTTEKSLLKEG

Compound: O=C1Cc2cc(S(=O)(=O)NNc3ccc(Br)cc3)ccc2N1
- half-life [1]: 138 min
- EC50 [2]: 67.6 nM
- inhibition [3]: < 50%
- inhibition [4]: < 50%
- inhibition [5]: < 50%
- inhibition [6]: < 50%
- inhibition [7]: < 50%
- inhibition in vivo at 400 mg/kg (CT26 [8]): 73%
- inhibition [9]: < 50%
- inhibition [10]: < 50%
- inhibition (Homo sapiens [11]): < 50%
- inhibition in vivo at 50 mg/kg (Mus musculus [12]): 31%
- inhibition [13]: < 50%
- inhibition [14]: < 50%
- Tmax [15]: 48 min
- inhibition [16]: < 50%
- inhibition [17]: < 50%
- inhibition (Homo sapiens [18]): < 50%
- inhibition [19]: < 50%
- inhibition at 10 µM [20]: < 50%
- AUC(0-inf) [21]: 7200 ng·h/mL
- inhibition [22]: < 50%
- inhibition [23]: < 50%
- inhibition [24]: < 50%
- inhibition [25]: < 50%
- bioavailability [26]: 59%
- inhibition [27]: < 50%
- inhibition at 10 µM [28]: < 50%
- inhibition (Homo sapiens [29]): < 50%
- inhibition [30]: < 50%
- inhibition (Homo sapiens [31]): < 50%
- inhibition [32]: < 50%
- inhibition [33]: < 50%
- inhibition [34]: < 50%
- inhibition in vivo at 100 mg/kg (Mus musculus [35]): 58%
- concentration at 5 h [36]: 2200 nM
- inhibition [37]: < 50%
- inhibition [38]: < 50%
- inhibition (Homo sapiens [39]): < 50%
- inhibition [40]: < 50%
- inhibition [41]: < 50%
- Time (CT26 [42]): 4 days
- Vd [43]: 1.2 L/kg

From ChEMBL document CHEMBL3763120, “Phenyl Benzenesulfonylhydrazides Exhibit Selective Indoleamine 2,3-Dioxygenase Inhibition with Potent in Vivo Pharmacodynamic Activity and Antitumor Efficacy” (J Med Chem, 2016)
